Experiments:
Aliivibrio fischeri = type: cell-based
Protocol: Furthermore, a representative subset was tested on Aliivibrio fischeri growth (formerly known as Vibrio fischeri), a bacterium used in the Microtox assay to test toxic substances in different substrates such as (drinking) water, air, soils and sediments.
Two of these variants were also tested on Aliivibrio fischeri to test possible toxicity.

agricultural soils = experiment: In soil nitrification inhibition assay; conditions: soil; for inhibition at 50 µM: 50 µM of each compound
Protocol: Top layer (0 to 10 cm) soil samples were collected from different fields in Belgium (Merelbeke, Sint-Laureins and Moorslede). Vegetation was removed and samples were taken from different plots. All soil samples were mixed and sieved (mesh size 2.8 mm) to filter large debris and homogenize soil. The soil was stored at 5° C. in plastic containers covered with Saran foil to prevent changes in microbial community composition and to maintain the original soil water content.
Soil water content was determined by drying 20 g soil for ≥ 48 h in a 60° C. oven and measuring weight before and after drying. Based on the soil water content (± 20%), compound solutions were prepared so that addition of 200 µl compound and 200 µl NH4Cl solution would result in a final compound concentration of 50 µM (unless otherwise stated) and a final NH4+ concentration of 10 mM. Per treatment, 5 small pots were filled with 20 g soil. Next, the soil was treated first with the respective compound solution and then with the NH4Cl solution. Per tray, positive (50 µM DMP) and negative controls (DMSO) were included. […] Demineralized water was added to the soil every 2 to 3 days to a soil weight of 20 g. In the end, each sample of 20 g soil was dissolved in 100 ml 1 M KCI and shaken for 1 hour, followed by filtration through Whatmann® paper. The filtrate was used to measure pH, NH4+ and NO3— concentrations. The nitrification percentage was calculated as the ratio of the consumed ammonium in treated soil versus the consumed ammonium in non-treated soil; the nitrification inhibition percentage was calculated as ‘100% - the nitrification percentage’.

[1] = test system: agricultural soils (Moorslede and Sint-Laureins); experiment: Greenhouse gas measurements from fertilized soil
Protocol: Two agricultural soils coming from fields in Moorslede and Sint-Laureins were used. Screw top vials were filled with 10 g soil. Vials were sealed with Parafilm and preincubated at 21° C. in the dark for 5 days. After pre-incubation, vials were ventilated using a fan. Then 100 µL of a 1 mM compound solution (10 % DMSO) was added, immediately followed by the addition of 100 µL 200 mM NH4Cl. Vials were closed gastight and 5 mL synthetic air was added to the headspace using a plastic syringe, followed by the transfer of 5 mL headspace to an evacuated 3 mL exetainer. Vials were incubated at 21° C. in the dark and background NO concentration was noted. At each sampling timepoint, 5 mL synthetic air was added again to the headspace using a plastic syringe, again followed by the transfer of 5 mL headspace to an evacuated 3 mL exetainer. Vials were ventilated and closed again, and new gas samples were transferred to exetainers like before. N2O in the exetainers were measured via gas chromatography (GC-14 B (Schimadzu) equipped with Haysep Q columns (same spec) and an ECD detector, He at c.a. 20 mL min, 70° C.). The CO2 and CH4 concentration in the 3 mL exetainer vials was measured using a GC (Trace-GC, Interscience) equipped with Haysep Q columns (80-100, ⅛″ divided in 2 part 0.25 and 2.0 m connected with a 6 port valve to allow backflush of water vapor) and a FID (CH4) and TCD (CO2). Carrier gas was He c.a. 20 mL/min kept at 90° C. NO concentration was measured directly by connecting a chemiluminescence NO detector (CLD 77 AM, eco physics) directly to the headspace using a needle.

[2] = test system: ammonia oxidizing archaea; experiment: Abundance of ammonia oxidizing archaea in DMP-treated soil
[3] = 168 h, Soil 2, 7 days, 100 µM of each compound, 6 inhibitors alone and combined with Example 2

## N#Cc1nn(CN2CCSCC2)c2ccc(Cl)cc12 [drawing 171]
Aliivibrio fischeri
  Growth of Aliivibrio fischeri, relative to control without compound (%): 3%

## Cc1cn[nH]c1C [DMP, 3,4-dimethylpyrazole]
Agricultural soils; 72 h, Soil 2, 3 days
  inhibition at 50 µM: 68%
Agricultural soils; 72 h, Soil 3, 3 days
  inhibition at 50 µM: 52%
Agricultural soils; 168 h, Soil 1, 7 days
  inhibition at 50 µM: 88%
Agricultural soils; 168 h, Soil 1, 7 days, 100 µM
  inhibition at 100 µM: 84%
Agricultural soils; 168 h, Soil 2, 7 days
  inhibition at 50 µM: 14%
Agricultural soils; 168 h, Soil 2, 7 days, 100 µM (Table 2)
  inhibition at 100 µM: 14%
Agricultural soils; [3]
  inhibition at 100 µM: 54%
Agricultural soils; 168 h, Soil 3, 7 days
  inhibition at 50 µM: 0%
Agricultural soils; 168 h, Soil 3, 7 days, 100 µM
  inhibition at 100 µM: 0%
[1]; Moorslede soil, N2O
  Cumulative emission at indicated timepoint [ppb], N2O, 4 h: 0 ppb
  Cumulative emission at indicated timepoint [ppb], N2O, 24 h: 0 ppb
  Cumulative emission at indicated timepoint [ppb], N2O, 48 h: 0 ppb
  Cumulative emission at indicated timepoint [ppb], N2O, 72 h: 0 ppb
  Cumulative emission at indicated timepoint [ppb], N2O, 99 h: 0 ppb
[1]; Moorslede soil, NO
  Cumulative emission at indicated timepoint [ppb], NO, 4 h: 48 ppb
  Cumulative emission at indicated timepoint [ppb], NO, 24 h: 49 ppb
  Cumulative emission at indicated timepoint [ppb], NO, 48 h: 47 ppb
  Cumulative emission at indicated timepoint [ppb], NO, 72 h: 64 ppb
  Cumulative emission at indicated timepoint [ppb], NO, 99 h: 64 ppb
[1]; Sint-Laureins soil, N2O
  Cumulative emission at indicated timepoint [ppb], N2O, 4 h: 0 ppb
  Cumulative emission at indicated timepoint [ppb], N2O, 24 h: 0 ppb
  Cumulative emission at indicated timepoint [ppb], N2O, 48 h: 0 ppb
  Cumulative emission at indicated timepoint [ppb], N2O, 72 h: 0 ppb
  Cumulative emission at indicated timepoint [ppb], N2O, 99 h: 0 ppb
[1]; Sint-Laureins soil, N2O, 215 h
  Cumulative emission at 215 h [ppb], N2O: 47 ppb
[1]; Sint-Laureins soil, NO
  Cumulative emission at indicated timepoint [ppb], NO, 4 h: 26 ppb
  Cumulative emission at indicated timepoint [ppb], NO, 24 h: 59 ppb
  Cumulative emission at indicated timepoint [ppb], NO, 48 h: 98 ppb
  Cumulative emission at indicated timepoint [ppb], NO, 72 h: 162 ppb
  Cumulative emission at indicated timepoint [ppb], NO, 99 h: 187 ppb
[1]; Sint-Laureins soil, NO, 215 h
  Cumulative emission at 215 h [ppb], NO: 243 ppb
[2]
  effect on the presence (abundance) of ammonia oxidizing archaea: no inhibiting effect on the presence of archaea

## CC(C)n1ncc2cc(CNc3ccc4[nH]ncc4c3)cnc21 [drawing 170]
Aliivibrio fischeri
  Growth of Aliivibrio fischeri, relative to control without compound (%): 40%

## Cc1cn(C(CC(=O)O)C(=O)O)nc1C (stereo not drawn) [DMPSA, 2-(3,4-dimethyl-pyrazol-1-yl)-succinic acid]
Agricultural soils; 72 h, Soil 2, 3 days
  inhibition at 50 µM: 47%
Agricultural soils; [3]
  inhibition at 100 µM: 44%

Reference: patent US20230357099A1, “PYRAZOLO [3,4-B] PYRIDINE-4-CARBOXAMIDE NITRIFICATION INHIBITOR” (EUROCHEM ANTWERPTEN, priority 2020, published 2023)
